PubChem BioAssay (NCI)
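Exposure lasted 48 hours, with cells grown in 96-well plates and compounds tested at five concentrations. Here, GI50 denotes the concentration required for 50% inhibition of growth. TGI: total growth inhibition.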

How the values were obtained:
Test in all cases: DTP human tumour cell line panel, 48 h
[1] = test system: HOP-62 NSCLC
[2] = test system: CAKI-1 renal
[3] = test system: MDA-MB-435
[4] = test system: OVCAR-8 ovarian
[5] = test system: K-562 leukemia
[6] = test system: T-47D breast
[7] = test system: HL-60(TB) leukemia
[8] = test system: OVCAR-3 ovarian
[9] = test system: ACHN renal
[10] = test system: EKVX NSCLC
[11] = test system: 786-0 renal
[12] = test system: HCC-2998 colon
[13] = test system: TK-10 renal
[14] = test system: A549 NSCLC
[15] = test system: SK-MEL-5 melanoma
[16] = test system: HCT-15 colon
[17] = test system: NCI-H460 lung
[18] = test system: UACC-257 melanoma
[19] = test system: M14 melanoma
[20] = test system: RPMI-8226 leukemia
[21] = test system: UACC-62 melanoma
[22] = test system: SNB-19 CNS
[23] = test system: MOLT-4 leukemia
[24] = test system: SF-295 CNS
[25] = test system: DU-145 prostate
[26] = test system: NCI-H226 lung
[27] = test system: MCF7 breast
[28] = test system: OVCAR-5 ovarian
[29] = test system: LOX IMVI melanoma
[30] = test system: SN12C renal
[31] = test system: BT-549 breast
[32] = test system: SW-620 colon
[33] = test system: SK-OV-3 ovarian
[34] = test system: CCRF-CEM leukemia
[35] = test system: HOP-92 NSCLC
[36] = test system: COLO 205 colon
[37] = test system: NCI/ADR-RES ovarian
[38] = test system: HCT-116 colon
[39] = test system: U251 CNS
[40] = test system: UO-31 renal
[41] = test system: HT29 colon
[42] = test system: KM12 colon
[43] = test system: NCI-H23 lung
[44] = test system: SK-MEL-28 melanoma
[45] = test system: SNB-75 CNS
[46] = test system: RXF 393 renal
[47] = test system: PC-3 prostate
[48] = test system: MALME-3M melanoma
[49] = test system: HS 578T breast
[50] = test system: SF-268 CNS
[51] = test system: SF-539 CNS
[52] = test system: MDA-MB-231 breast
[53] = test system: A498 renal
[54] = test system: SR leukemia
[55] = test system: OVCAR-4 ovarian
[56] = test system: IGROV1 ovarian

In the case of `O=C(Nc1cc(Cl)ccc1O)c1cccc(Nc2ccnc(C(F)(F)F)c2)c1`, the GI50 [1] is reported as 4.4 µM, the TGI [1] is reported as 23.5 µM and the GI50 [2] is reported as 2.61 µM. For the same compound, the TGI [2] was 12.7 µM, the GI50 [3] was 2.83 µM and the TGI [3] was 12.2 µM. The GI50 [4] was 3.77 µM, the TGI [4] was 32.1 µM and the GI50 [5] was 0.713 µM. For the same compound, the TGI [5] was 12.4 µM, the GI50 [6] was 1.02 µM and the TGI [6] was 7.51 µM. For the same compound, the GI50 [7] was 0.935 µM, the TGI [7] was 4.03 µM and the GI50 [8] was 2.73 µM. For the same compound, the TGI [8] was 10.4 µM, the GI50 [9] was 2.13 µM and the TGI [9] was 81.2 µM. For the same compound, the GI50 [10] was 2.43 µM, the TGI [10] was 10.7 µM and the GI50 [11] was 3.56 µM. It also gave a TGI [11] of 19.3 µM, a GI50 [12] of 5.01 µM and a TGI [12] of 17.1 µM. It also gave a GI50 [13] of 4.51 µM, a TGI [13] of 19.8 µM and a GI50 [14] of 2.94 µM. For the same compound, the TGI [14] was 66 µM, the GI50 [15] was 1.3 µM and the TGI [15] was 3.83 µM. The GI50 [16] was 2.61 µM, the TGI [16] was 42.1 µM and the GI50 [17] was 1.95 µM. It also gave a TGI [17] of 13.2 µM, a GI50 [18] of 4.63 µM and a TGI [18] of 16.7 µM. For the same compound, the GI50 [19] was 3.85 µM, the TGI [19] was 18.3 µM and the GI50 [20] was 0.822 µM. The TGI [20] was 4.04 µM, the GI50 [21] was 0.901 µM and the TGI [21] was 11.9 µM. It also gave a GI50 [22] of 2.42 µM, a TGI [22] of 13.8 µM and a GI50 [23] of 1.54 µM. For the same compound, the TGI [23] was 4.73 µM, the GI50 [24] was 2.38 µM and the TGI [24] was 11.1 µM. For the same compound, the GI50 [25] was 5.22 µM, the TGI [25] was 22.6 µM and the GI50 [26] was 4.84 µM. It also gave a TGI [26] of 39.5 µM, a GI50 [27] of 2 µM and a TGI [27] of 17.9 µM. The GI50 [28] was 13.9 µM, the TGI [28] was 38.5 µM and the GI50 [29] was 2.65 µM. It also gave a TGI [29] of 24.4 µM, a GI50 [30] of 3.36 µM and a TGI [30] of 25.5 µM. For the same compound, the GI50 [31] was 2.18 µM, the TGI [31] was 12.6 µM and the GI50 [32] was 4.32 µM. For the same compound, the TGI [32] was 18.5 µM, the GI50 [33] was 3.3 µM and the TGI [33] was 25.3 µM. For the same compound, the GI50 [34] was 1.93 µM, the TGI [34] was 6.8 µM and the GI50 [35] was 2.27 µM. The TGI [35] was 10.9 µM, the GI50 [36] was 3.18 µM and the TGI [36] was 15 µM. The GI50 [37] was 2.67 µM, the TGI [37] was 14.1 µM and the GI50 [38] was 2.22 µM. It also gave a TGI [38] of 17.6 µM, a GI50 [39] of 3.05 µM and a TGI [39] of 83.4 µM. For the same compound, the GI50 [40] was 2.3 µM, the TGI [40] was 11.3 µM and the GI50 [41] was 11.1 µM. For the same compound, the TGI [41] was 31.8 µM, the GI50 [42] was 3.68 µM and the TGI [42] was 14.4 µM. The GI50 [43] was 0.771 µM, the TGI [43] was 7.74 µM and the GI50 [44] was 6.15 µM. It also gave a TGI [44] of 19.1 µM, a GI50 [45] of 6.27 µM and a TGI [45] of 22.2 µM. For the same compound, the GI50 [46] was 11 µM, the TGI [46] was 29.1 µM and the GI50 [47] was 2.29 µM. For the same compound, the TGI [47] was 11.6 µM, the GI50 [48] was 2.22 µM and the TGI [48] was 11.2 µM. It also gave a GI50 [49] of 8.27 µM, a TGI [49] of 41.2 µM and a GI50 [50] of 7.35 µM. For the same compound, the TGI [50] was 22.8 µM, the GI50 [51] was 2.07 µM and the TGI [51] was 15 µM. It also gave a GI50 [52] of 2.63 µM, a TGI [52] of 26.7 µM and a GI50 [53] of 3.28 µM. It also gave a TGI [53] of 13.4 µM, a GI50 [54] of 0.811 µM and a TGI [54] of 15.2 µM. For the same compound, the GI50 [55] was 2.32 µM, the TGI [55] was 17.4 µM and the GI50 [56] was 7.47 µM. For the same compound, the TGI [56] was 33.9 µM.
